What was measured:
[1] = biological target: T1, Acetylcholinesterase (AChE) (Mus musculus, UniProt P21836); assay: Acetylcholinesterase (AChE) assay in brain (in vitro), Ellman method; format: biochemical, Swiss albino mice; details: for inhibition at 10 µM / inhibition at 100 µM: read-out: % Inhibition of AChE enzyme; for AChE inhibitory activity compared to rivastigmine: comparison with rivastigmine
T1 construct: A 10% (w/v) homogenate of brain was prepared; from tissue; host or cells: whole brain of adult Swiss albino mice; supernatant (100,000 g) of the 1% Triton X-100 treated homogenate
T1 sequence (P21836 32-614): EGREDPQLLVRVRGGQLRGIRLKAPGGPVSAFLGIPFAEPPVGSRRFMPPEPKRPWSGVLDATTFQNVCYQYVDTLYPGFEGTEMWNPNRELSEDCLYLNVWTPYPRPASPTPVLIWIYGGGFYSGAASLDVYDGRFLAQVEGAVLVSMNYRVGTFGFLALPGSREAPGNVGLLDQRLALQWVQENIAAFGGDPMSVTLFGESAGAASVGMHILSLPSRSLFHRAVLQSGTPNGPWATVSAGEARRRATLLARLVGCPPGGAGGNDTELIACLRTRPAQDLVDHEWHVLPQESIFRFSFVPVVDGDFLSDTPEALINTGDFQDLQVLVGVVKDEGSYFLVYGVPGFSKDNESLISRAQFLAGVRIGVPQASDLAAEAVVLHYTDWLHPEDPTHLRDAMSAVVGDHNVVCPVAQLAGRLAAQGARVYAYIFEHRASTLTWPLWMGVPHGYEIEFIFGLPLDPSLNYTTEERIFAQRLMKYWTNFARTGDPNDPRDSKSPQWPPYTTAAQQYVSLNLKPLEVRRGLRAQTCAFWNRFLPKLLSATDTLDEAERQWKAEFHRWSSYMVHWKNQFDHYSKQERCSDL
Procedure: Acetylcholinesterase (AChE) Assay in Brain (In Vitro)
The mice were perfused under mild ether anesthesia through heart with ice cooled normal saline (0.9% NaCl) to remove blood-born cholinesterase from the brain. After perfusion the whole brain was taken out. A 10% (w/v) homogenate of brain was prepared first by homogenizing in an Ultra-Turrax T25 homogenizer at a speed of 9500 rpm thrice giving intervals for few seconds in between the runs, with sodium phosphate buffer (0.03 M, pH-7)).
The brain homogenate in volume of 500 μl was mixed with 1% Triton X-100 (1% w/v in 0.03M sodium phosphate buffer, pH-7) and centrifuged at 100,000 g at 4° C. in a Beckman Ultracentrifuge (LE 80, USA), using a fixed angle rotor (80 ti) for 60 min. Supernatant was collected and stored at 4° C. for acetylcholinesterase estimation.
The assay for each sample was run in triplicate and each experiment was performed twice.
The specific activity of AChE is expressed in μM/min/mg of protein.
The test substance (dissolved in ethanol) was incubated with enzyme source in different concentrations ([…]) for 30 min at 37° C. prior to obtain kinetic profile of AChE activity. […] The AChE inhibitory activity was calculated on the basis of % decrease in AChE activity from control values i.e. AChE activity without incubation with any standard or test drug.
The results are expressed as mean±S.E.M. Statistical analysis of passive avoidance values were performed by t-test. The IC50 value was calculated by non linear regression method using GraphPad Prism software.

Swiss albino male mice = assay: Gross behavioral study; details: for cholinergic symptoms / side effects: upto 24 hrs of drug administration; for cholinergic symptoms: 25 mg/kg; for side effects: 50 mg/kg

| Structure (SMILES) | IC50 [1] [µM] | inhibition at 10 µM [1] [%] | inhibition at 100 µM [1] [%] | other results |
| --- | --- | --- | --- | --- |
| Cc1ccccc1NC(=O)Oc1ccc2c(c1)N(Cc1ccccc1)CCC2 [Compound 8a, 1-benzyl-1,2,3,4-tetrahydroquinolin-7-yl 2-methylphenylcarbamate] | 13 ± 0.66 | 44.1 | 90.4 | – |
| Cc1ccc(NC(=O)Oc2ccc3c(c2)N(Cc2ccccc2)CCC3)cc1 [Compound 8b, 1-benzyl-1,2,3,4-tetrahydroquinolin-7-yl 4-methylphenylcarbamate] | 354 ± 21.5 | 5.41 | 25.1 | – |
| O=C(Nc1ccccc1F)Oc1ccc2c(c1)N(Cc1ccccc1)CCC2 [Compound 8c, 1-benzyl-1,2,3,4-tetrahydroquinolin-7-yl 2-fluorophenylcarbamate] | > 100 | 9.87 | 19.5 | – |
| O=C(Nc1ccc(F)cc1)Oc1ccc2c(c1)N(Cc1ccccc1)CCC2 [Compound 8d, 1-benzyl-1,2,3,4-tetrahydroquinolin-7-yl 4-fluorophenylcarbamate] | > 100 | 5.23 | 15.5 | – |
| O=C(Nc1ccc(Cl)cc1)Oc1ccc2c(c1)N(Cc1ccccc1)CCC2 [Compound 8f, 1-benzyl-1,2,3,4-tetrahydroquinolin-7-yl 4-chlorophenylcarbamate] | > 100 | 2.1 | 12.5 | – |
| CCCCCCCNC(=O)Oc1ccc2c(c1)N(Cc1ccccc1)CCC2 [Compound 8h, 1-benzyl-1,2,3,4-tetrahydroquinolin-7-yl heptylcarbamate] | > 100 | 5.2 | 10.1 | – |
| COc1ccccc1NC(=O)Oc1ccc2c(c1)N(Cc1ccccc1)CCC2 [Compound 8i, 1-benzyl-1,2,3,4-tetrahydroquinolin-7-yl 2-methoxyphenylcarbamate] | 298 ± 12.7 | 2.5 | 24.1 | – |
| COc1ccc(NC(=O)Oc2ccc3c(c2)N(Cc2ccccc2)CCC3)cc1 [Compound 8j, 1-benzyl-1,2,3,4-tetrahydroquinolin-7-yl 4-methoxyphenylcarbamate] | > 100 | 1.41 | 3.59 | – |
| CN1CCCc2ccc(OC(=O)Nc3ccccc3F)cc21 [Compound 8l, 1-methyl-1,2,3,4-tetrahydroquinolin-7-yl 2-fluorophenylcarbamate] | 55.9 ± 2.97 | 32.8 | 58.8 | – |
| Cc1ccc(NC(=O)Oc2ccc3c(c2)NCCC3)cc1 [Compound 9a, 1,2,3,4-tetrahydroquinolin-7-yl 4-methylphenylcarbamate] | > 100 | 0.01 | 1.45 | – |
| O=C(Nc1ccccc1F)Oc1ccc2c(c1)NCCC2 [Compound 9b, 1,2,3,4-tetrahydroquinolin-7-yl 2-fluorophenylcarbamate] | 76.3 ± 0.9 | 10.5 | 55.7 | – |
| O=C(Nc1ccc(F)cc1)Oc1ccc2c(c1)NCCC2 [Compound 9c, 1,2,3,4-tetrahydroquinolin-7-yl 4-fluorophenylcarbamate] | 327 ± 15.9 | 1.15 | 21.6 | – |
| O=C(Nc1ccc(Cl)cc1)Oc1ccc2c(c1)NCCC2 [Compound 9d, 1,2,3,4-tetrahydroquinolin-7-yl 4-chlorophenylcarbamate] | 126 ± 4.17 | 1.86 | 38.9 | – |
| C#CCN1CCCc2ccc(OC(=O)Nc3ccccc3C)cc21 [Compound 10a, 1-(prop-2-ynyl)-1,2,3,4-tetrahydroquinolin-7-yl 2-methylphenylcarbamate] | 13.3 ± 3.33 | 52.5 | 60.8 | – |
| C#CCN1CCCc2ccc(OC(=O)NCCCCCCC)cc21 [Compound 10b, 1-(prop-2-ynyl)-1,2,3,4-tetrahydroquinolin-7-yl heptylcarbamate] | 7.59 ± 0.62 | 55.5 | 77.2 | tolerability (Swiss albino male mice; 125 mg/kg oral dose): Well tolerated; cholinergic symptoms / side effects (Swiss albino male mice; 125 mg/kg oral dose): No cholinergic symp-; AChE inhibitory activity, fold lower compared to the drug Rivastigmine ([1]; fold lower than Rivastigmine): 7 fold |
| C#CCN1CCCc2ccc(OC(=O)Nc3ccccc3Br)cc21 [Compound 10c, 1-(prop-2-ynyl)-1,2,3,4-tetrahydroquinolin-7-yl 2-bromophenylcarbamate] | 2.82 ± 0.04 | 71.7 | 87.3 | AChE inhibitory activity compared to rivastigmine [1]: almost equal |
| C#CCN1CCCc2ccc(OC(=O)Nc3c(C)cccc3C(C)C)cc21 [Compound 10d, 1-(prop-2-ynyl)-1,2,3,4-tetrahydroquinolin-7-yl 2-isopropyl-6-methylphenylcarbamate] | > 100 | 17.9 | 22.5 | – |
| C#CCN1CCCc2ccc(OC(=O)Nc3ccccc3OC)cc21 [Compound 10e, 1-(prop-2-ynyl)-1,2,3,4-tetrahydroquinolin-7-yl 2-methoxyphenylcarbamate] | 0.92 ± 0.12 | 95.4 | 96.3 | tolerability (Swiss albino male mice; 125 mg/kg oral dose): Well tolerated; cholinergic symptoms / side effects (Swiss albino male mice; 125 mg/kg oral dose): No cholinergic symp-; AChE inhibitory activity compared to rivastigmine [1]: slightly better |
| C#CCN1CCCc2ccc(OC(=O)Nc3ccc(Cl)cc3)cc21 [Compound 10f, 1-(prop-2-ynyl)-1,2,3,4-tetrahydroquinolin-7-yl 4-chlorophenylcarbamate] | 756 ± 208 | 25.4 | 30.9 | – |
| C#CCN1CCCc2ccc(OC(=O)N(C)C)cc21 [Compound 10g, 1-(prop-2-ynyl)-1,2,3,4-tetrahydroquinolin-7-yl dimethylcarbamate] | 0.68 ± 0.02 | 94.2 | 96.5 | AChE inhibitory activity compared to rivastigmine [1]: slightly better |
| COc1cc2c(cc1OC)C(=O)C(CC1CCN(Cc3ccccc3)CC1)C2 (centres unmarked) [Donepezil] | – | – | – | tolerability (Swiss albino male mice; 5 mg/kg dose): well tolerated; cholinergic symptoms (Swiss albino male mice): Moderate cholinergic; cholinergic symptoms (Swiss albino male mice; listed as donepezil): moderate cholinergic symptoms; side effects (Swiss albino male mice): severe side effects were found initially and all; side effects (Swiss albino male mice; listed as donepezil): severe side effects were found initially |
| CCN(C)C(=O)Oc1cccc([C@H](C)N(C)C)c1 [Rivastigmine] | – | – | – | overall locomotor activity (Swiss albino male mice; 1 mg/kg): locomotor activity was normal as control group.; peripheral cholinergic symptoms / tolerability (Swiss albino male mice; 1 mg/kg): 1 mg/kg: No peripheral cholinergic symptoms. Overall; duration of symptom phase (Swiss albino male mice; 2 mg/kg): 25 to 30 min; onset of symptoms after dosing (Swiss albino male mice; 2 mg/kg): 2 mg/kg: 5-10 min after dosing animals become; recovery to normal after dosing (Swiss albino male mice; 2 mg/kg): animals become normal one hr after; time gap between cholinergic side effect and death (Swiss albino male mice; 4 mg/kg): administration. There was no detectable time gap; mortality (Swiss albino male mice; 4 mg/kg oral): 100%; time to mortality after drug administration (Swiss albino male mice; 4 mg/kg oral): ≤ 15 min; peripheral side effects (Swiss albino male mice; oral dose of 3 mg/kg): some peripheral side effects |
| Nc1c2c(nc3ccccc13)CCCC2 [Tacrine] | – | – | – | tolerability (Swiss albino male mice; 5 mg/kg dose): well tolerated at 5 mg/kg dose |
